Experimental data as given in ChEMBL document CHEMBL4007386, “Design, synthesis of allosteric peptide activator for human SIRT1 and its biological evaluation in cellular model of Alzheimer's disease” (Eur J Med Chem, 2017).
Values belong to the molecule of their own block, whether it stands above or below them. Activity calls are given as the source filed them. The rule behind the calls is not given here. Where a SMILES comes first, the peptide text is derived from it.

Tests used:
[1] = target: T1, NAD-dependent protein deacetylase sirtuin-1 (Homo sapiens) (UniProt Q96EB6); assay: Activation of SIRT1 in Alzheimer's disease patient serum assessed as increase in deacetylation of SIRT1 substrate peptide at 5 mM preincubated for 1 hr followed by substrate addition measured after 1 hr by fluorescence spectroscopic method
T1 sequence (whole entry): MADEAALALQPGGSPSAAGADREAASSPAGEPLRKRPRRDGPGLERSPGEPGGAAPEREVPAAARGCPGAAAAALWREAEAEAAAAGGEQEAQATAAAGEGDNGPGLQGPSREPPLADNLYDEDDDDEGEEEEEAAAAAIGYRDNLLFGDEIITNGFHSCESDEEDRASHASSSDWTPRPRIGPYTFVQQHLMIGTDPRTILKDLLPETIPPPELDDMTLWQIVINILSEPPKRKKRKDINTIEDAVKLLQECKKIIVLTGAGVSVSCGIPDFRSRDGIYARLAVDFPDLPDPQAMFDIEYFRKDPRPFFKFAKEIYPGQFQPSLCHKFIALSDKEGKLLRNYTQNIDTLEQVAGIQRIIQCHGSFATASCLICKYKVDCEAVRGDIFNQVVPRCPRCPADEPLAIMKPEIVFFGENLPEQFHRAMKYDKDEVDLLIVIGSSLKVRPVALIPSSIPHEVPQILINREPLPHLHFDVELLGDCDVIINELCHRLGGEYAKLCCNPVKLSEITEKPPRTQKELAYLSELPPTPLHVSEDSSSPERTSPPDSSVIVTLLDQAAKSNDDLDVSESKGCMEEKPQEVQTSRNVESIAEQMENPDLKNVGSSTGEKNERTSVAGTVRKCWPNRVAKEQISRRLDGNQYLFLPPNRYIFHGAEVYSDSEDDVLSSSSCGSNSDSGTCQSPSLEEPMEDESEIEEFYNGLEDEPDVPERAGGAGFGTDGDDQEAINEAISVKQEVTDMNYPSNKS

[2] = target: T1, NAD-dependent protein deacetylase sirtuin-1 (Homo sapiens); assay: Activation of SIRT1 (unknown origin) expressed in bacterial expression system assessed as increase in enzyme activity at 100 uM using Fluorophore labeled-Arg-His-Lys-Lys (Ac) as substrate incubated for 30 mins in presence of NAD+ by fluorimetric method relative to control
[3] = target: T1, NAD-dependent protein deacetylase sirtuin-1 (Homo sapiens); assay: Activation of SIRT1 in Alzheimer's disease patient serum assessed as increase in deacetylation of SIRT1 substrate peptide at 1.5 to 3 mM preincubated for 1 hr followed by substrate addition measured after 1 hr by fluorescence spectroscopic method relative to control
[4] = target: T1, NAD-dependent protein deacetylase sirtuin-1 (Homo sapiens); assay: Allosteric activation of SIRT1 in human IMR32 cells assessed as decrease in acetylation level of K382 residue of p53 at 160 uM after 48 hrs in presence of SIRT1 inhibitor nicotinamide by Western blot method; assay type: cell-based
[5] = target: T1, NAD-dependent protein deacetylase sirtuin-1 (Homo sapiens); assay: Activation of SIRT1 in human IMR32 cells assessed as protection against amyloid beta (25 to 35)-induced toxicity by measuring cell viability at 80 uM after 48 hrs by MTT assay (reference value: 56.3 +/- 1.2%); assay type: cell-based
[6] = target: T1, NAD-dependent protein deacetylase sirtuin-1 (Homo sapiens); assay: Activation of SIRT1 in human IMR32 cells assessed as protection against amyloid beta (25 to 35)-induced toxicity by measuring cell viability at 10 uM after 48 hrs by MTT assay (reference value: 56.3 +/- 1.2%); assay type: cell-based
[7] = target: T2, NAD-dependent protein deacetylase sirtuin-2 (Homo sapiens) (UniProt Q8IXJ6); assay: Activity at SIRT2 in Alzheimer's disease patient serum assessed as effect on deacetylation of SIRT2 substrate peptide at 1.5 to 3 mM preincubated for 1 hr followed by substrate addition measured after 1 hr by fluorescence spectroscopic method
T2 sequence (whole entry): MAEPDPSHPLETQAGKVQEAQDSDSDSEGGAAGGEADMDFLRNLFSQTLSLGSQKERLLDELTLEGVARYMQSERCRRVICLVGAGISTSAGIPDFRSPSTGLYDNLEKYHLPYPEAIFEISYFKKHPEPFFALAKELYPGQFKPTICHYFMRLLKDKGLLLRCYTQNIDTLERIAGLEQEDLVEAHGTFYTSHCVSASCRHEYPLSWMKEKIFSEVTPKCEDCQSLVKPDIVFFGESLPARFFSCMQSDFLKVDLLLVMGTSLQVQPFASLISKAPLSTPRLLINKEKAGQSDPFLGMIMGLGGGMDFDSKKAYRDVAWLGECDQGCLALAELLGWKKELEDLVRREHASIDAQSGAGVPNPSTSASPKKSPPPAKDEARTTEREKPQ

[8] = target: T1, NAD-dependent protein deacetylase sirtuin-1 (Homo sapiens); assay: Activation of SIRT1 (unknown origin) expressed in bacterial expression system assessed as increase in enzyme activity at >145 uM using Fluorophore labeled-Arg-His-Lys-Lys (Ac) as substrate incubated for 30 mins in presence of NAD+ by fluorimetric method
[9] = target: T1, NAD-dependent protein deacetylase sirtuin-1 (Homo sapiens); assay: Activation of SIRT1 in human IMR32 cells assessed as protection against amyloid beta (25 to 35)-induced toxicity by measuring cell viability at 40 uM after 48 hrs by MTT assay (reference value: 56.3 +/- 1.2%); assay type: cell-based
[10] = target: T1, NAD-dependent protein deacetylase sirtuin-1 (Homo sapiens); assay: Allosteric activation of SIRT1 in human IMR32 cells assessed as decrease in acetylation level of K382 residue of p53 after 48 hrs by Western blot method; assay type: cell-based
[11] = target: T1, NAD-dependent protein deacetylase sirtuin-1 (Homo sapiens); assay: Activation of SIRT1 in human IMR32 cells assessed as protection against amyloid beta (25 to 35)-induced toxicity by measuring cell viability at 20 uM after 48 hrs by MTT assay (reference value: 56.3 +/- 1.2%); assay type: cell-based
[12] = target: T1, NAD-dependent protein deacetylase sirtuin-1 (Homo sapiens); assay: Activation of SIRT1 (unknown origin) expressed in bacterial expression system assessed as increase in enzyme activity at 105 uM using Fluorophore labeled-Arg-His-Lys-Lys (Ac) as substrate incubated for 30 mins in presence of NAD+ by fluorimetric method relative to control
[13] = target: T1, NAD-dependent protein deacetylase sirtuin-1 (Homo sapiens); assay: Activation of SIRT1 (unknown origin) expressed in bacterial expression system assessed as increase in enzyme activity using Fluorophore labeled-Arg-His-Lys-Lys (Ac) as substrate incubated for 30 mins in presence of NAD+ by fluorimetric method

SMILES: NC(=O)c1cccnc1
- Activity [1]: inactive

SMILES: N=C(N)NCCC[C@H](NC(=O)[C@H](Cc1c[nH]c2ccccc12)NC(=O)[C@@H](N)CS)C(=O)O (H-Cys-Trp-Arg-OH)
- Activity [3]: 21.2%
- Activity [4]: inactive
- Activity [5]: 83.4%
- Activity [2]: 97%
- Activity [6]: 57.1%
- Activity [7]: inactive
- Activity [8]: Active
- Activity [9]: 79.8%
- Activity [10]: Dose-dependent effect
- Activity [11]: 68%
- fold change (FC) [12]: 2
- EC1.5 [13]: 55 µM

SMILES: N=C(N)NCCC[C@H](NC(=O)[C@@H]1CCCN1C(=O)[C@@H](N)Cc1cnc[nH]1)C(=O)O (H-His-Pro-Arg-OH)
- Activity [2]: -10%

SMILES: CC(C)[C@H](NC(=O)[C@@H](N)Cc1cnc[nH]1)C(=O)N[C@@H](CCCNC(=N)N)C(=O)O (H-His-Val-Arg-OH)
- Activity [2]: 5%

SMILES: N=C(N)NCCC[C@H](NC(=O)[C@H](Cc1c[nH]c2ccccc12)NC(=O)[C@@H](N)Cc1ccccc1)C(=O)O (H-Phe-Trp-Arg-OH)
- Activity [2]: 28%

Other lines, results leading:

- Activity [2]: 6%
SMILES: CC(C)C[C@H](NC(=O)[C@@H](N)CC(N)=O)C(=O)N[C@@H](CCCNC(=N)N)C(=O)O (H-Asn-Leu-Arg-OH)

- Activity [2]: 24%
SMILES: N=C(N)NCCC[C@H](NC(=O)[C@H](Cc1c[nH]c2ccccc12)NC(=O)[C@@H](N)CC(N)=O)C(=O)O (H-Asn-Trp-Arg-OH)

- Activity [2]: 4%
SMILES: N=C(N)NCCC[C@H](NC(=O)[C@H](Cc1ccc(O)cc1)NC(=O)[C@@H](N)CC(N)=O)C(=O)O (H-Asn-Tyr-Arg-OH)

- Activity [2]: 12%
SMILES: N=C(N)NCCC[C@H](NC(=O)[C@H](Cc1ccc(O)cc1)NC(=O)[C@@H](N)CCC(N)=O)C(=O)O (H-Gln-Tyr-Arg-OH)

- Activity [2]: 15%
SMILES: N[C@@H](Cc1cnc[nH]1)C(=O)N[C@@H](CCC(=O)O)C(=O)N[C@@H](Cc1ccc(O)cc1)C(=O)O (H-His-Glu-Tyr-OH)

- Activity [2]: 19%
SMILES: N=C(N)NCCC[C@H](NC(=O)[C@H](Cc1ccc(O)cc1)NC(=O)[C@@H](N)Cc1cnc[nH]1)C(=O)O (H-His-Tyr-Arg-OH)
